Here are results for 1 compound from US8658638B2, “Mineralocorticoid receptor antagonist and methods of use” (priority 2009, dated 2014).

In data set [1] the target is T1, human androgen receptor (AR) (Homo sapiens, UniProt P10275).
T1 sequence (P10275 1-920): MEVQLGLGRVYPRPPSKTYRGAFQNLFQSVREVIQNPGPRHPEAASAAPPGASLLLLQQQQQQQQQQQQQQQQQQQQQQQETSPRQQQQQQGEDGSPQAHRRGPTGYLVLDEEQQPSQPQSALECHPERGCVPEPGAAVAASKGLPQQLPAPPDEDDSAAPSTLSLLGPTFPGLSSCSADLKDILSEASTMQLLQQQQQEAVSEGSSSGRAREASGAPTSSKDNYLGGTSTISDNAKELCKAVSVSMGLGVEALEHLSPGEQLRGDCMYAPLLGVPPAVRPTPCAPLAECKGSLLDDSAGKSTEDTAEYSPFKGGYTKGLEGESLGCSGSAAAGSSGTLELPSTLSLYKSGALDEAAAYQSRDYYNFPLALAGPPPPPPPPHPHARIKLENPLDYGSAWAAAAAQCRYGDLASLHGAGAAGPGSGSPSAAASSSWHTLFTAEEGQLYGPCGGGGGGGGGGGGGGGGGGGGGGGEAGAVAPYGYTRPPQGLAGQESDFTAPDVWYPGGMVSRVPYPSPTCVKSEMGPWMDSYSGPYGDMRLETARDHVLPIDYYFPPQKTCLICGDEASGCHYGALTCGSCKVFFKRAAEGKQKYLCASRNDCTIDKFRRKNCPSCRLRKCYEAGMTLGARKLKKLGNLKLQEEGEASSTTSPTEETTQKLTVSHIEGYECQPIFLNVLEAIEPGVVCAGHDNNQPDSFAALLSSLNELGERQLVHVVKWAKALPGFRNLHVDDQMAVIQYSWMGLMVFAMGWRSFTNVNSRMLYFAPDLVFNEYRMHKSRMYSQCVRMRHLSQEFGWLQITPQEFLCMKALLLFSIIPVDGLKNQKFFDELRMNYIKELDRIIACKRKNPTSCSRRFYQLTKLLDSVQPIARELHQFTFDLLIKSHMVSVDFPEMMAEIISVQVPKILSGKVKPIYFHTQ
Nature of the data set: Nuclear hormone receptor panel screen (luciferase reporter, HEK293), AR. The data set is classed as cell-based. From the text:
Aldosterone exerts it physiological effects through interaction with the mineralocorticoid receptor. Following cytoplasmic binding of aldosterone to MR, the ligand receptor complex translocates to the cell nucleus where it binds to hormone response elements on DNA to initiate expression of target genes. […] The solvents, reagents, and ligands employed in the functional assay are readily available from commercial sources, or can be prepared by one of ordinary skill in the art.
Human embryonic kidney HEK293 cells are transfected with steroid hormone receptor and reporter gene plasmids using a suitable transfection reagent such as Fugene™. […] After 24 hours incubation with test compounds, cells are lysed and luciferase activity is determined using standard techniques.
Data are fitted to a four parameter-fit logistic curve to determine EC50 values. […] IC50 values are determined similarly using antagonist mode assay data. In the antagonist mode, percent inhibitions are determined by comparing test compound activity in the presence of low concentration of agonist (0.08 nM aldosterone for MR, 0.25 nM dexamethasone for GR, 0.66 nM of methyltrienolone for AR, and 0.08 nM of promegestone for PR) to the response produced by the same low concentration of agonist in the absence of test compound.
For orientation: A reporter such as luciferase makes a cellular process visible.

Data set [2] has as its system adrenalectomized Sprague Dawley rats. Nature of the data set: In vivo assay of electrolyte modulation. To be noted: 30 mg/kg p.o., aldosterone 3 μg/kg s.c., urine collected 5 hours after dose, rat. Here is the method:
Male Sprague Dawley rats (240-280 g) are adrenalectomized then maintained on 5001 rodent chow and 1% NaCl drinking solution for 6 days after surgery. Animals are then fasted overnight and 1% saline drinking water is replaced with house water ad lib. The morning of the study, fasted animals are randomized to treatment on the basis of fasted body weight. Control animals (e.g. those that receive no aldosterone or test compound) are given 10 mL/kg of test compound vehicle comprising 0.5% CMC/0.25% polysorbate 80/2.7% NaCl by oral gavage, and 1 mL/kg of aldosterone vehicle (0.01% DMSO/water) by subcutaneous injection. Vehicle animals are given the same test compound vehicle by oral gavage and aldosterone 3 μg/kg, s.c. Test substances are suspended in the carboxy methylcellulose/NaCl vehicle. The test compound treatment groups receive test substance suspended in the carboxy methylcellulose/NaCl vehicle and aldosterone 3 μg/kg s.c. Immediately after dosing, animals are placed in metabolic racks with ad lib access to house water. Urine samples are collected 5 hours after dose administration and electrolyte excretion is assayed. Data are presented as log Na/K excretion ratio or % of Na/K ratio with respect to adrenalectomized vehicle treated animals. […]

The subject of data set [3] is uni-nephrectomized Sprague Dawley rats. Nature of the data set: In vivo model of aldosterone mediated hypertension. The following applies: orally once daily 1-30 mg/kg/day x 14 days, rat. Here is the method: Male uni-nephrectomized Sprague Dawley rats (240-280 g) are housed individually with ad lib house water and rodent 5001 diet for one week. After acclimation, animals are implanted with Alzet pumps to subcutaneously deliver 0.25 μg/h of aldosterone at 2.5 μl/h for up to 28 days, and maintained on a diet containing 6% NaCl and drinking water containing 0.3% KCl throughout the duration of the study. Radiotelemetry devices are also implanted to monitor arterial blood pressure. For example, signals from each animal are sampled every 10 minutes throughout the study. The mean (±SEM) of all values collected over a twenty four hour period represent the mean daily arterial pressure for each animal.
On the day following pump implantation, test compound in a vehicle comprising 1% medium viscosity sodium carboxy methylcellulose/0.25% polysorbate 80/0.05% Antifoam 1510 ™, or vehicle alone, is then administered by once daily oral gavage (10 mL/kg).

In the case of `O=c1[nH]c2cc(/C=C3\c4ccccc4COc4cc(F)ccc43)ccc2n1[C@@H]1C[C@@H]2COCCN2C1` [Compound (I), 5-((E)-(3-fluorodibenzo[b,e]oxepin-11(6H)-ylidene)methyl)-1-((7R,8aR)-hexahydro-1H-pyrrolo[2,1-c][1,4]oxazin-7-yl)-1H-benzo[d]imidazol-2(3H)-one], the half-maximal effective concentration (EC50) in data set [1] (agonist mode) was over 10 µM. Further, in data set [1] (antagonist mode, 0.66 nM methyltrienolone), the IC50 was over 10 µM. Also, in data set [2], the “increase of urinary Na/K excretion ratio compared to vehicle treated animals” value is listed as “about 30%”. Besides, the “effect on the hypertensive effects of aldosterone in the presence of salt compared to vehicle” value in data set [3] is recorded as “dose dependently reduced the hypertensive effects of aldosterone”.

What is called EC50 is the concentration giving half of the maximal effect. The IC50 is the concentration at which inhibition is half-maximal. Lower therefore signals greater potency.
